The source of these data is patent US6583177B2, “Leukotriene B4 antagonist compounds and method for treatment” (Ono Pharmaceutical Co., Ltd., priority 1994, dated 2003).

Assay [1] deals with T1, trypsin (derived from bovine pancreas) (Bos taurus, UniProt P00760).
T1 construct: a solution of 80 mU/ml trypsin (derived from bovine pancreas) (50 μl); from tissue; host or cells: bovine pancreas
T1 sequence (P00760 24-246): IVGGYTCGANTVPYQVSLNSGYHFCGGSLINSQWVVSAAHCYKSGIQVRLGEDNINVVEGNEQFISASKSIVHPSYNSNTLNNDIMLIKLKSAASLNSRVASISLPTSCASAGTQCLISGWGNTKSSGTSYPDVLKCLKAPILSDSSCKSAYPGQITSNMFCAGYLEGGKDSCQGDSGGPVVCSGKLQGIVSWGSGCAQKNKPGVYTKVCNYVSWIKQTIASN
The experiment in a line: Inhibitory activity on trypsin. Conditions: bovine pancreas trypsin, BAPNA substrate, 30° C., pH 8.0; read-out: inhibitory activity on trypsin IC50. It counts as biochemical. The procedure:
(2) Inhibitory Activity on Trypsin
To a mixture of a 0.2 M HEPES.sodium hydroxide buffer solution (pH 8.0, 100 μl) and distilled water (640 μl), were added a test compound in various concentration or water (10 μl), and a solution of 80 mU/ml trypsin (derived from bovine pancreas) (50 μl) and then the mixture was preincubated for one minute at 30° C. To the solution thus obtained was added 2.5 mM BAPNA (200 μl) and the mixture was incubated at 30° C. The absorbance at 405 nm was measured. Percentage (%) of the absorbance in the presence of a test compound was calculated when the absorbance in the absence thereof was regarded as 100%, and therefrom IC50 value was calculated.
HEPES represents 4-2-hydroxyethyl)-1-piperazineethanesulfonic acid, and
BAPNA represents α-N-benzoyl-DL-arginine-p-nitroanilide hydrochloride.

Assay [2] addresses T2, LTB4 receptor (Homo sapiens, UniProt Q15722).
T2 construct: The reaction was started by addition of a thoroughly mixed PMN cell suspension (1.6×10^6 cells); endogenous in cells; host or cells: human polymorphonuclear leukocytes (PMN), whole-cell suspension
As to the kind of experiment: Binding inhibition against 3H-LTB4 on the human polymorphonuclear leukocyte (PMN). Conditions: percentage of inhibition of specific 3H-LTB4 (4nM) binding to human PMN, 0° C. for 20 min; formula (IB) compounds, Table 18. The procedure:
Binding Inhibition Against ^3H-LTB4 on the Human Polymorphonuclear Leukocyte (PMN)
0.049 ml Hanks balanced salt solution (HBSS), 0.001 ml test compound and 0.05 ml ^3H-LTB4 (4nM) were added to polypropylene tubes and mixed. The reaction was started by addition of a thoroughly mixed PMN cell suspension (1.6×10^6 cells), followed by incubation at 0° C. for 20 min. The reaction was terminated by the addition of ice-cold HBSS (2.5 ml). PMNs were harvested by vacuum filtration through Whatman GF/C glass fiber filters on a Brandel cell harvester (BRANDEL, M-24R). The filters were then washed 2 times to remove free ^3H-LTB4 with 2.5 ml of the ice-cold PBS (−) solution. The filters were transferred to each vial, and equilibrated after adding 8 ml ACS II cocktail (Amersham). The radioactivity was measured by liquid scintillation counter (Aloka, LSC-5100).
Specific binding of ^3H-LTB4 to the LTB4 receptor was defined as total binding minus nonspecific binding. Nonspecific binding was the amount of ^3H-LTB4 binding in the presence of 1.5 μM LTB4 instead of the test compound. The inhibitory effect of test compound was calculated from the following equation.
The percentage of inhibition (%)=100−(B1/B0×100)
B1: Specific ^3H-LTB4 binding in presence of test compound
B0: Specific ^3H-LTB4 binding in absence of test compound
The compounds of the formula (IB), of the present invention have an antagonistic activity on LTB4. The results which are measured by method as hereinbefore described in Example 1(A), are shown the following Table 18.

Assay [3] deals with T3, PLA2 (derived from hog pancreas) (Sus scrofa, UniProt P00592).
T3 construct: a solution of 10 mU/ml PLA2 (derived from hog pancreas) (50 μl); from tissue; host or cells: hog pancreas
T3 sequence (P00592 23-146): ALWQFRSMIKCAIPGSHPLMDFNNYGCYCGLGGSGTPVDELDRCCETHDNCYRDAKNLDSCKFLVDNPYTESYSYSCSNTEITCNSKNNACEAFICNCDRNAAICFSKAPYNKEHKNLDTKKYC
The experiment in a line: Inhibitory activity on PLA2. It counts as biochemical. To be noted: hog pancreas PLA2, 10PY-PC substrate, fluorescence, pH7.5. The procedure:
(1) Inhibitory Activity on PLA2
A reaction solution including 50 mM tris-HCl buffer (pH7.5, 874 μl; containing 100 mM sodium chloride, 1 mM EDTA), 1M calciumchloride (6 μl), 1% bovine serum albumin (10 μl) and 2.5 mM 10PY-PC (10 μl), was prepared. To the solution were added a test compound in various concentration or water (50 μl), and a solution of 10 mU/ml PLA2 (derived from hog pancreas) (50 μl). The appearance of fluorescence was measured (Ex=345 nm, Em=396 nm). Percentage (%) of the strength of fluorescence in the presence of a test compound was calculated when the strength of that in the absence thereof was regarded as 100%, and therefrom IC50 value was calculated.
10PY-PC represents 3′-palmitoyl-2-(1-pyrenedecanoyl)-L-α-phosphatidylcholine, […]

T2 sequence (Q15722 whole entry): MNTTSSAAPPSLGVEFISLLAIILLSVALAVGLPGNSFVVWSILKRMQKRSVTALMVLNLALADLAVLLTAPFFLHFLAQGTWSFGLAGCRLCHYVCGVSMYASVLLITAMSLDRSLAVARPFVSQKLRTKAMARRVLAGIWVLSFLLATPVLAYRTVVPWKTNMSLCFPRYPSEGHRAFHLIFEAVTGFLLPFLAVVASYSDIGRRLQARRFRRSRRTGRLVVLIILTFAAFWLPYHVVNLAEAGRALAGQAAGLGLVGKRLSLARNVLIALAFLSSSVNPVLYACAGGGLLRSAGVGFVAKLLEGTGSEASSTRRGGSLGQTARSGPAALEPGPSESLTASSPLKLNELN

As to `CCOC(=O)CC(NC(=O)/C(C)=C/c1ccc(C(=O)Oc2ccc(C(=N)N)cc2)cc1)(C(=O)OCC)C(=O)OCC` [Example 2(k)], the IC50 (as a rule, the midpoint of a concentration-inhibition curve) in assay [1] stood at 0.1 µM; in assay [3], 20 µM. Also, the inhibition (usually the relative decrease from the control value, in per cent) in assay [2] was found to be 97.7%.
As to `C=CCN(CC(=O)OCC)C(=O)c1ccc(/C=C(\C)C(=O)Oc2ccc(C(=N)N)cc2)cc1` [Example 2(l)], the IC50 in assay [1] is 0.12 µM; in assay [3] it was 94 µM. In addition, in assay [2], the inhibition worked out at 81%.
As to `CCOC(=O)CC[C@H](NC(=O)/C=C/C=C/c1ccc(C(=O)Oc2ccc(C(=N)N)cc2)cc1)C(=O)OCC` [Example 2(m)], the IC50 in assay [1] turned out to be 0.17 µM; in assay [3], 18 µM. Moreover, the inhibition in assay [2] came to 89.2%.
In the case of `C=CCN(CC(=O)OCC)C(=O)/C=C/C=C/c1ccc(C(=O)Oc2ccc(C(=N)N)cc2)cc1` [Example 2(n)], the IC50 in assay [1] worked out at 0.16 µM; in assay [3] it was 10 µM. Further, the inhibition in assay [2] amounted to 82.8%.
On the same counts, the results for `C=CCC(NC(=O)/C(C)=C/c1ccc(C(=O)Oc2ccc(C(=N)N)cc2)cc1)(C(=O)OCC)C(=O)OCC` [Example 2(o)] are 0.14 µM, 12 µM and 85.8%.
Take `CCOC(=O)CC[C@H](NC(=O)c1ccc(/C(C)=C/C(=O)Oc2ccc(C(=N)N)cc2)cc1)C(=O)OCC` [Example 2(p)]: the results for the IC50 in assay [1] and in assay [3] were 0.13 µM and 29 µM, respectively. In assay [2], this compound displayed an inhibition of 95.2%.
In the case of `C=CCN(CC(=O)OCC)C(=O)c1ccc(/C(C)=C/C(=O)Oc2ccc(C(=N)N)cc2)cc1` [Example 2(q)], the IC50 in assay [1] was 0.16 µM; in assay [3] it was 34 µM. In assay [2], this compound displayed an inhibition of 98%.
The matching figures for `CCOC(=O)CC[C@H](NC(=O)C(=Cc1ccc(C(=O)Oc2ccc(C(=N)N)cc2)cc1)C(=O)OCC)C(=O)OCC` [Example 2(r)]: 0.16 µM, 46 µM and 80.1%.
On the same counts, the results for `C=CCN(CC(=O)OCC)C(=O)C(=Cc1ccc(C(=O)Oc2ccc(C(=N)N)cc2)cc1)C(=O)OCC` [Example 2(s)] are 0.16 µM, 44 µM and 83%.
